Reference: US8287888B2, “Thermosensitive polyphosphazene-bioactive molecule conjugates, preparation method thereof and use thereof” (Korea Institute of Science and Technology, priority 2006, dated 2012)
In brackets after ≈: the same amount, converted by molar mass.

Experiments:
[1] = test system: Stomach cancer cells, SNU-601; test: Anti-cancer activity in vivo of hydrogel conjugated with doxorubicin; parameters: species or system nude mouse (Balb/C)
Description: The anti-cancer activity in vivo of the poly(organophosphazene) hydrogel conjugated with doxorubicin prepared by the method of Example 5 was determined by the following method.
A nude mouse (OrientalBio, Balb/C, female of 5-weeks old, 20 g) was used as an animal model for animal experimentation for an in vivo test. Stomach cancer cells, SNU-601 (1×10^7 cells, 0.2 ml, the Korean Cell Line Bank), were injected into the dorsum of the mouse. A polymer solution containing the 10 wt % poly(organophosphazene)-doxorubicin conjugate of Example 5 in phosphate buffered saline (pH 7.4) was prepared. 0.1 ml and 0.2 ml of the solution was respectively injected into the cancer cells, and the change in the size of the cancer cells was measured.
When the solution is injected in an amount as much as 0.1 ml, the amount of doxorubicin injected is 30 mg per 1 kg of the mouse weight. When the solution is injected in an amount as much as 0.2 ml, the amount of doxorubicin injected is 60 mg per 1 kg of the mouse weight.
(§1) As the control group, the magnitude transition of the cancer cell into which doxorubicin was injected in the amount of 30 mg per 1 kg of the mouse weight and that to which saline is administered instead of the anti-cancer drug were measured respectively. The number of mouse used was 10 heads respectively.

[2] = test system: human cervix adenocarcinoma (Hela); test: Anti-cancer activity in vitro, MTT; format: cell-based; conditions: for IC50: Homo sapiens, HeLa
Description: (§2) In order to find out anticancer activity in vitro of the poly(organophosphazene) conjugated with anti-cancer drug of the present invention, the trial as follows was performed about the human breast adenocarcinoma (MCF-7, the Korea Cell Line Bank) and the human cervix adenocarcinoma (Hela, the Korea Cell Line Bank).
(§3) For the in vitro cell experiment, in order to measure the genesistasis concentration to 50% (IC50) toward the cancer cell of the poly(organophosphazene) conjugated with anticancer drug, the analytical method using 3-(4,5-dimethylthiazol-2-yl)-2,5-diphenyl-2H-tetrazolium bromide (MTT) was performed [T. Mosmann, J. Immunol. Method, 65, (1985) 55].
(§4) The materials for to measuring were respectively melted in the DMSO (dimethylsulfoxide) of the small amount, and they were diluted to the distilled water with 200 times. The materials solution were added to the cancer cell that is MCF-7(the Korea Cell Line Bank) and Hela (the Korea Cell Line Bank). Then, they were added to 96-well microtiter plater to 1.0×10^4 cell/ml (the concentration of the cancer cell). And they were cultivated for 2, 3, 4 days, respectively, with 37° C. in 5% CO2 condition.
(§5) MTT solution (20 μl) was mixed the cultivated cell with, and they were more cultivated for 4 hours with 37° C. in 5% CO2 condition. After the upper culture medium of each cell was removed, DMSO (100 μl) was added to a well and they were shaken in the room temperature to the plate shaker with for 20 minutes, thereby dissolving the formazan crystal generated by reducing of MTT.

[3] = test system: human breast adenocarcinoma (MCF-7); test: Anti-cancer activity in vitro, MTT; format: cell-based; conditions: for IC50: Homo sapiens
Description: as §2, §3, §4, §5

[4] = Sol-gel phase transition with change of temperature (Brookfield rheometer); format: physicochemical; conditions: for Gel solidity (maximum viscosity of the polymer solution) / Max. gelling temp. (temperature where the viscosity of the polymer solution reaches the maximum point): 10 wt % in phosphate buffered saline (pH 7.4)
Description: The poly(organophosphazene) conjugated with a drug or bioactivemolecules obtained in Examples 1 to 11 were respectively dissolved in phosphate buffered saline (pH 7.4) at 4° C. so as to make solutions with concentrations of 10 wt %. The solutions were put into a chamber of a Brookfield DV-III+ Rheometer equipped with a thermostatic bath (TC-501).

stomach cancer, SNU-601 = test: Anti-cancer activity in vivo of hydrogel conjugated with paclitaxel; parameters: species or system nude mouse (Balb/C)
Description: The anti-cancer activity in vivo of the poly(organophosphazene) hydrogel conjugated with paclitaxel prepared by the method of Example 1 was determined by the following method.
A nude mouse (OrientalBio, Balb/C, female of 5-weeks old, 20 g) was used as an animal model for animal experimentation for an in vivo test. Cells of stomach cancer, SNU-601 (1×10^7 cells, 0.2 ml, the Korean Cell Line Bank), were injected into the dorsum of the mouse. A polymer solution containing the 10 wt % poly(organophosphazene)-paclitaxel conjugate of Example 1 in phosphate buffered saline (pH 7.4) was prepared. 0.1 ml and 0.2 ml of the solution were respectively injected into the cancer cells, and the change in the size of the cells was measured.
When the solution is injected in an amount as much as 0.1 ml, the amount of paclitaxel injected is 10 mg per 1 kg of the mouse weight. When the solution is injected in an amount as much as 0.2 ml, the amount of paclitaxel injected is […] per 1 kg of the mouse weight.
as §1, with “which paclitaxel” for “which doxorubicin”, “of 60” for “of 30”, “that of the cancer cell into” for “that to”, “saline was” for “saline is”

[5] = Hydrolysis of the polymer with time by GPC molecular weight; format: physicochemical; conditions: 10 wt % in PBS pH 7.4, 37° C., compared among Examples 3, 4 and 9

Which “mortality due to toxicity” value ([1]; free doxorubicin 30 mg/kg, after 14 days, 10 mice per group) does the source give for `COc1cccc2c1C(=O)c1c(O)c3c(c(O)c1C2=O)C[C@@](O)(C(=O)CO)C[C@@H]3O[C@H]1C[C@H](N)[C@H](O)[C@H](C)O1` [doxorubicin, reference compound] here?
Its value is “all of mouse died”.

And the IC50 ([2]; 2nd day)?
Its IC50 is 0.321 µg/mL (≈ 0.591 µM).

And the IC50 ([2]; 3rd day)?
The IC50 was 0.692 µg/mL (≈ 1.27 µM).

What about the IC50 ([2]; 4th day) of the same compound?
The IC50 was 0.19 µg/mL (≈ 0.35 µM).

And the IC50 ([3]; MCF7, MCF-7, 2nd day)?
Its IC50 is 2.29 µg/mL (≈ 4.22 µM).

What about the IC50 ([3]; MCF7, MCF-7, 3rd day) of the same compound?
Its IC50 is 1.69 µg/mL (≈ 3.11 µM).

What about the IC50 ([3]; MCF7, MCF-7, 4th day) of the same compound?
Its IC50 is 1 µg/mL (≈ 1.85 µM).

Which “Anti-cancer activity [IC50]” value ([2]; 2nd day) does the source give for “poly[(isoleucineethylester)(aminomethoxypolyethyleneglycol 550)(glycylglycine)(glycylglycyldoxorubicin)phosphazene] [Example 4]” here?
The value was 1.425 µg/mL.

What about the “Anti-cancer activity [IC50]” value ([2]; 3rd day) of the same compound?
The value was 0.892 µg/mL.

And the “Anti-cancer activity [IC50]” value ([2]; 4th day)?
Its value is 0.283 µg/mL.

And the “Anti-cancer activity [IC50]” value ([3]; MCF-7, 2nd day)?
Its value is 2.829 µg/mL.

And the “Anti-cancer activity [IC50]” value ([3]; MCF-7, 3rd day)?
The value was 2.801 µg/mL.

What about the “Anti-cancer activity [IC50]” value ([3]; MCF-7, 4th day) of the same compound?
The value was 1.641 µg/mL.

What about the “Gel solidity (maximum viscosity of the polymer solution)” value (“Gel solidity” for short) [4] of the same compound?
Its value is 88 Pa · s.

And the “Max. gelling temp. (temperature where the viscosity of the polymer solution reaches the maximum point)” value [4]?
Its value is 37 °C.

What does the source list for “poly[(isoleucineethylester)(aminomethoxypolyethyleneglycol 550)(glycylglycine)(glycylglycin)(glycylglycylglycin-arginine-glycin-asparagine-cerinicacidpeptied)phosphazene] [Example 11]”?
Gel solidity (maximum viscosity of the polymer solution) [4]: 155 Pa · s; Max. gelling temp. (temperature where the viscosity of the polymer solution reaches the maximum point) [4]: 44 °C

With “poly[(isoleucineethylester)(aminomethoxypolyethyleneglycol 550)(glycylglycine)(glycylglycyldoxorubicin)phosphazene] [Example 5]” as the compound, how does the “size of the cancer cells decreased to” value ([1]; 0.1 ml intratumoral (doxorubicin 30 mg/kg), after 14 days) read?
Its value is 68%.

What about the “size of the cancer cells decreased to” value ([1]; 0.1 ml intratumoral (doxorubicin 30 mg/kg), after 26 days) of the same compound?
The value was 173%.

And the “size of the cancer cells decreased to” value ([1]; 0.1 ml intratumoral (doxorubicin 30 mg/kg), after 28 days)?
The value was 168%.

What about the “size of the cancer cells decreased to” value ([1]; 0.2 ml intratumoral (doxorubicin 60 mg/kg), after 14 days) of the same compound?
Its value is 155%.

And the “size of the cancer cells decreased to” value ([1]; 0.2 ml intratumoral (doxorubicin 60 mg/kg), after 22 days)?
The value was 195%.

And the “size of the cancer cells decreased to” value ([1]; 0.2 ml intratumoral (doxorubicin 60 mg/kg), after 28 days)?
The value was 182%.

What about the mortality ([1]; doxorubicin concentration of 30 mg/kg as hydrogel, 10 mice per group) of the same compound?
The mortality was “did not die”.

And the mortality ([1]; doxorubicin concentration of 60 mg/kg as hydrogel, 10 mice per group)?
The mortality was “did not die”.

What about the “Gel solidity” value [4] of the same compound?
Its value is 1477 Pa · s.

What about the “Max. gelling temp. (temperature where the viscosity of the polymer solution reaches the maximum point)” value [4] of the same compound?
Its value is 39 °C.

For “poly[(isoleucineethylester)(aminomethoxypolyethyleneglycol 550)(glycylglycine)(glycylglycylpaclitaxel)phosphazene] [Example 2]”, which “Anti-cancer activity [IC50]” value ([2]; 2nd day) is on record?
Its value is 0.082 µg/mL.

And the “Anti-cancer activity [IC50]” value ([2]; 3rd day)?
The value was 0.079 µg/mL.

And the “Anti-cancer activity [IC50]” value ([2]; 4th day)?
The value was 0.048 µg/mL.

What about the “Anti-cancer activity [IC50]” value ([3]; MCF-7, 2nd day) of the same compound?
Its value is 0.027 µg/mL.

What about the “Anti-cancer activity [IC50]” value ([3]; MCF-7, 3rd day) of the same compound?
Its value is 0.021 µg/mL.

And the “Anti-cancer activity [IC50]” value ([3]; MCF-7, 4th day)?
Its value is 0.007 µg/mL.

What about the “Gel solidity” value [4] of the same compound?
The value was 230 Pa · s.

And the “Max. gelling temp. (temperature where the viscosity of the polymer solution reaches the maximum point)” value [4]?
The value was 38 °C.

With `CC(=O)O[C@H]1C(=O)[C@@]2(C)[C@H]([C@H](OC(=O)c3ccccc3)[C@]3(O)C[C@H](OC(=O)[C@H](O)[C@@H](NC(=O)c4ccccc4)c4ccccc4)C(C)=C1C3(C)C)[C@]1(OC(C)=O)CO[C@@H]1C[C@@H]2O` [paclitaxel, reference compound] as the compound, how does the “mice died due to toxicity” value (stomach cancer, SNU-601; 60 mg/kg, after 10 days, 10 mice per group) read?
Its value is 8 mouse heads.

And the IC50 ([2]; 2nd day)?
The IC50 was 0.083 µg/mL (≈ 0.0972 µM).

What about the IC50 ([2]; 3rd day) of the same compound?
The IC50 was 0.021 µg/mL (≈ 0.0246 µM).

And the IC50 ([2]; 4th day)?
The IC50 was 0.014 µg/mL (≈ 0.0164 µM).

And the IC50 ([3]; MCF7, MCF-7, 2nd day)?
Its IC50 is 0.022 µg/mL (≈ 0.0258 µM).

And the IC50 ([3]; MCF7, MCF-7, 3rd day)?
The IC50 was 0.006 µg/mL (≈ 0.00703 µM).

And the IC50 ([3]; MCF7, MCF-7, 4th day)?
Its IC50 is 0.002 µg/mL (≈ 0.00234 µM).

Which results are given for “poly[(isoleucineethylester)(aminomethoxypolyethyleneglycol 550)(glycylglycine)(glycylglycylglycin-arginine-glycin-asparagine-cerinicacidpeptied)phosphazene] [Example 8]”?
Gel solidity (maximum viscosity of the polymer solution) [4]: 318 Pa · s; Max. gelling temp. (temperature where the viscosity of the polymer solution reaches the maximum point) [4]: 39 °C

Which “Gel solidity” value [4] does the source give for “poly[(isoleucineethylester)(aminomethoxypolyethyleneglycol 550)(glycylglycine)(glycylglycylglycin-arginine-glycin-asparagine-cerinicacidpeptied)phosphazene] [Example 7]” here?
The value was 145 Pa · s.

And the “Max. gelling temp. (temperature where the viscosity of the polymer solution reaches the maximum point)” value [4]?
The value was 42 °C.

Which “Gel solidity” value [4] does the source give for “poly[(isoleucineethylester)(aminomethoxypolyethyleneglycol 750)(glycylglycine)(glycylglycyldoxorubicin)phosphazene] [Example 6]” here?
The value was 313 Pa · s.

And the “Max. gelling temp. (temperature where the viscosity of the polymer solution reaches the maximum point)” value [4]?
Its value is 46 °C.

Which results are given for “poly[(isoleucineethylester)(aminomethoxypolyethyleneglycol 550)(glycylglycine)(glycylglycylglycmethylester)(glycylglycylglycin-arginine-glycin-asparagine-cerinicacidpeptied)phosphazene] [Example 9]”?
speed of hydrolysis (reduced molecular weight by GPC) [5]: the most quickly hydrolyzed; Gel solidity (maximum viscosity of the polymer solution) [4]: 130 Pa · s; Max. gelling temp. (temperature where the viscosity of the polymer solution reaches the maximum point) [4]: 46 °C; viscosity in 37° C. ([4]; compared among Examples 3, 4 and 9): the lowest viscosity

Which results are given for “poly[(isoleucineethylester)(aminomethoxypolyethyleneglycol 550)(glycylglycine)(glycylglycylpaclitaxel)phosphazene] [Example 1]”?
size of the cancer cells decreased to (stomach cancer, SNU-601; 0.1 ml intratumoral (paclitaxel 10 mg/kg), after 26 days): 60%; size of the cancer cells decreased to (stomach cancer, SNU-601; 0.1 ml intratumoral (paclitaxel 10 mg/kg), after 34 days): 57%; size of the cancer cells decreased to (stomach cancer, SNU-601; 0.2 ml intratumoral (paclitaxel 30 mg/kg), after 26 days): 81%; size of the cancer cells decreased to (stomach cancer, SNU-601; 0.2 ml intratumoral (paclitaxel 30 mg/kg), after 34 days): 81%; Anti-cancer activity [IC50] ([2]; 2nd day): 0.099 µg/mL; Anti-cancer activity [IC50] ([2]; 3rd day): 0.057 µg/mL; Anti-cancer activity [IC50] ([2]; 4th day): 0.022 µg/mL; Anti-cancer activity [IC50] ([3]; MCF-7, 2nd day): 0.025 µg/mL; Anti-cancer activity [IC50] ([3]; MCF-7, 3rd day): 0.018 µg/mL; Anti-cancer activity [IC50] ([3]; MCF-7, 4th day): 0.003 µg/mL; Gel solidity (maximum viscosity of the polymer solution) [4]: 128 Pa · s; Max. gelling temp. (temperature where the viscosity of the polymer solution reaches the maximum point) [4]: 40 °C

For “poly[(isoleucineethylester)(aminomethoxypolyethyleneglycol 550)(glycylglycine)(glycylglycylglycylethylester)(glycylglycylglycin-arginine-glycin-asparagine-cerinicacidpeptied)phosphazene] [Example 10]”, which “Gel solidity” value [4] is on record?
The value was 238 Pa · s.

And the “Max. gelling temp. (temperature where the viscosity of the polymer solution reaches the maximum point)” value [4]?
Its value is 42 °C.
